Reference: patent US20230312529A1, “PYRIMIDINE SMALL-MOLECULE COMPOUND AND APPLICATION THEREOF” (WENZHOU MEDICAL UNIVERSITY, priority 2021, published 2023)
Where two headings read alike, the source gives them in different places.

Legend:
[1] = tested on: osteosarcoma cells MG63; assay: Metastasis (scratch migration) test of osteosarcoma cells; type: cell-based; details: 0.1, 0.2 and 0.4 uM, compared with positive drugs
Protocol: (§1) The cells were washed with sterile PBS for three times, and basal medium containing 2.5 μL of TCS was added respectively. Photographs were taken at 0 hour, 24 hours and 48 hours under an inverted microscope, and migration distances were measured with Imag J software.

[2] = tested on: osteosarcoma cells MNNG; assay: as above; type: cell-based; details: 0.1, 0.2 and 0.4 uM, compared with positive drugs
Protocol: as §1

[3] = tested on: osteosarcoma cells MG63; assay: Adhesion test of osteosarcoma cells on fibronectin; type: cell-based; details: 0.1, 0.2 and 0.4 uM, 48 hours, compared with positive drugs
Protocol: (§2) Each well was dried, and added with 100 μL of 33% glacial acetic acid and the crystal violet was dissolved by shaking for 10 minutes. The absorbance was measured by a microplate reader at […], and the adhesion rate (%)=(OD value of tumor cells in the drug-added treated group−Hu FN OD value)/(OD value of untreated tumor cells−Hu FN OD value)×100%.

[4] = tested on: osteosarcoma cells MNNG; assay: Adhesion test of osteosarcoma cells on fibronectin; type: cell-based; details: 0.1, 0.2 and 0.4 uM, 48 hours, compared with positive drugs
Protocol: as §2

[5] = tested on: MG-63 osteosarcoma cells; assay: MTT assay on osteosarcoma cells; type: cell-based; details: Homo sapiens, 48 hours, read-out: Inhibitory activity (IC50) MG-63
Protocol: (§3) Logarithmic osteosarcoma cells were inoculated into a 96-well plate with a cell concentration of 1,500 cell/well for 6 hours by using MTT assay, and each well was filled with 200 μL of cell suspension. […] The samples were cultured in an incubator for 48 hours (37° C., 5% CO2), and 20 v L of MTT (3-(4,5-dimethylthiazole-2)-2,5-diphenyltetrazole) were added into each hole. After continuous culture for 4 hours, the culture solution was discarded by suction, and 200 v L of DMSO were added to each well. […] Calculation method of IC50 value: the IC50 values of the samples were calculated by curve fitting with GraphPad Prism software.

[6] = tested on: SAOS-2 osteosarcoma cells; assay: MTT assay on osteosarcoma cells; type: cell-based; details: Homo sapiens, 48 hours, read-out: Inhibitory activity (IC50) SAOS-2
Protocol: as §3

[7] = tested on: MNNG/HOS osteosarcoma cells; assay: MTT assay on osteosarcoma cells; type: cell-based; details: 48 hours, read-out: Inhibitory activity (IC50) MNNG/HOS
Protocol: as §3

[8] = target: JAK1 (Homo sapiens (Human), UniProt P23458); assay: Caliper Mobility Shift kinase inhibition test; type: biochemical; details: for inhibition at 0.1 µM: 100 nM
JAK1, sequence (P23458 whole entry, species assumed): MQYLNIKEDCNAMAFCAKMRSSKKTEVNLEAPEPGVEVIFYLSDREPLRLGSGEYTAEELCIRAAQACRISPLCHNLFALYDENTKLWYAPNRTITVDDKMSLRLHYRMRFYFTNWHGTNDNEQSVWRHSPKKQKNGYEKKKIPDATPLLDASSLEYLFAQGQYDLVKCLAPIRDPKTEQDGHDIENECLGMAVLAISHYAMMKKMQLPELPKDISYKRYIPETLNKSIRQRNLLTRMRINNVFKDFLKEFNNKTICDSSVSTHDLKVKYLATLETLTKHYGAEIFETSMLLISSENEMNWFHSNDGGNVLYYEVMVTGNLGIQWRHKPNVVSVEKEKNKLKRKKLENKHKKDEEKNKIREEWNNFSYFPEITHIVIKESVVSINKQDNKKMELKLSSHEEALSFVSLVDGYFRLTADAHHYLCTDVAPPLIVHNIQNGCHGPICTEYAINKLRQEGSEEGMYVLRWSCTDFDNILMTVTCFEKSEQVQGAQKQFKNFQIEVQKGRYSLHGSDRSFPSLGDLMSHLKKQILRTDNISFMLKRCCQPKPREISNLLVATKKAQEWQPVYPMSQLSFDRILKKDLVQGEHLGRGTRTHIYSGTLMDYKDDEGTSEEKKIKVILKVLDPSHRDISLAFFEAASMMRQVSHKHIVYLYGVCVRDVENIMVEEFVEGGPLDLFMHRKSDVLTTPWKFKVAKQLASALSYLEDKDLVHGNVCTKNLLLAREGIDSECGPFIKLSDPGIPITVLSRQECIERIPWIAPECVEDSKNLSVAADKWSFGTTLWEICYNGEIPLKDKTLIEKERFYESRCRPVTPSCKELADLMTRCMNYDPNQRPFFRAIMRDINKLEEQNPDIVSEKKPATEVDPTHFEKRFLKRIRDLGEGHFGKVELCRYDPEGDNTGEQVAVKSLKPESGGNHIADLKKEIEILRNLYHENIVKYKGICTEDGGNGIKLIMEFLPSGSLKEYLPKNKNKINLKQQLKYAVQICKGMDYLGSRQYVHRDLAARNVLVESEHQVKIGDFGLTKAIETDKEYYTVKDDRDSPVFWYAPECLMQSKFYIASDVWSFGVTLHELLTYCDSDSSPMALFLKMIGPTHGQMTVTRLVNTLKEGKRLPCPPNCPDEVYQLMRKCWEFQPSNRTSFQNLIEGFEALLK
Protocol: (§4) The method adopted in the test was Caliper Mobility Shift Assay, which was a detection platform based on the mobility detection technology of microfluidic chip technology. Test steps: 1.25× kinase reaction buffer (62.5 mmol/L HEPES, pH 7.5; 0.001875% Brij-35; 12.5 mmol/L MgCl2; 2.5 mM DTT) and kinase reaction stop solution (100 mmol/L HEPES, pH 7.5; 0.015% Brij-35; 0.2% Coating Reagent #3) were configured. […] Collected data was tested on Caliper to yield that inhibition ratio to kinase activity=(max−conversion)/(max−min)×100. “max” was DMSO control without adding compound, and “min” was low control. When IC50 was determined, each sample was provided with 10 dilutions, each with 2 multiple holes, and repeated for 3 times.
(§5) According to the above-mentioned method for measuring kinase inhibitory activity, the inhibitory activity of the active compounds on other multiple kinases was measured to characterize the kinase selectivity of active inhibitors.

[9] = target: FGFR2 (Homo sapiens (Human), UniProt P21802); assay: Caliper Mobility Shift kinase inhibition test; type: biochemical; details: for inhibition at 0.1 µM: 100 nM
FGFR2, sequence (P21802 22-821, species assumed): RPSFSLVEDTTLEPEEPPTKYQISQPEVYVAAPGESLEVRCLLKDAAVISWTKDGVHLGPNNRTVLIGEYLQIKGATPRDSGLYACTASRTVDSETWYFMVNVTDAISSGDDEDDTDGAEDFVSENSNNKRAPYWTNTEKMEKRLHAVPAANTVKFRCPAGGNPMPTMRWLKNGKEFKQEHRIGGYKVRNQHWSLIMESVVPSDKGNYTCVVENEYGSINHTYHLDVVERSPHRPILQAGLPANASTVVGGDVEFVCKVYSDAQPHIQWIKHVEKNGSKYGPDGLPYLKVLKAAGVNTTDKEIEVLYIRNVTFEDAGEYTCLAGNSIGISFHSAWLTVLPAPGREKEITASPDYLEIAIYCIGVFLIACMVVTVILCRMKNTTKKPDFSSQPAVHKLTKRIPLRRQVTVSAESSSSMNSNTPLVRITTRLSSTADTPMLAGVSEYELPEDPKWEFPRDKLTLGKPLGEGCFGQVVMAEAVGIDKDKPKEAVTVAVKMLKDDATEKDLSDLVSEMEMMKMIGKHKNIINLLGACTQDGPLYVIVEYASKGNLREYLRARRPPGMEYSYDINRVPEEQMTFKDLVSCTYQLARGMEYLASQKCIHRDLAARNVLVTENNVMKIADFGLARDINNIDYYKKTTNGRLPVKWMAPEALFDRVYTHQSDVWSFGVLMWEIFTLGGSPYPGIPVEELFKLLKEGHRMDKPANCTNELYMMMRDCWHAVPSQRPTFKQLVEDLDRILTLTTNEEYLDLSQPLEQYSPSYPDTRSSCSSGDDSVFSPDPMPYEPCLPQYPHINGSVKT
Protocol: as §4, §5

[10] = target: PDGFRβ (Homo sapiens (Human), UniProt P09619); assay: Caliper Mobility Shift kinase inhibition test; type: biochemical; details: for inhibition at 0.1 µM: 100 nM
PDGFRβ, sequence (P09619 33-1106): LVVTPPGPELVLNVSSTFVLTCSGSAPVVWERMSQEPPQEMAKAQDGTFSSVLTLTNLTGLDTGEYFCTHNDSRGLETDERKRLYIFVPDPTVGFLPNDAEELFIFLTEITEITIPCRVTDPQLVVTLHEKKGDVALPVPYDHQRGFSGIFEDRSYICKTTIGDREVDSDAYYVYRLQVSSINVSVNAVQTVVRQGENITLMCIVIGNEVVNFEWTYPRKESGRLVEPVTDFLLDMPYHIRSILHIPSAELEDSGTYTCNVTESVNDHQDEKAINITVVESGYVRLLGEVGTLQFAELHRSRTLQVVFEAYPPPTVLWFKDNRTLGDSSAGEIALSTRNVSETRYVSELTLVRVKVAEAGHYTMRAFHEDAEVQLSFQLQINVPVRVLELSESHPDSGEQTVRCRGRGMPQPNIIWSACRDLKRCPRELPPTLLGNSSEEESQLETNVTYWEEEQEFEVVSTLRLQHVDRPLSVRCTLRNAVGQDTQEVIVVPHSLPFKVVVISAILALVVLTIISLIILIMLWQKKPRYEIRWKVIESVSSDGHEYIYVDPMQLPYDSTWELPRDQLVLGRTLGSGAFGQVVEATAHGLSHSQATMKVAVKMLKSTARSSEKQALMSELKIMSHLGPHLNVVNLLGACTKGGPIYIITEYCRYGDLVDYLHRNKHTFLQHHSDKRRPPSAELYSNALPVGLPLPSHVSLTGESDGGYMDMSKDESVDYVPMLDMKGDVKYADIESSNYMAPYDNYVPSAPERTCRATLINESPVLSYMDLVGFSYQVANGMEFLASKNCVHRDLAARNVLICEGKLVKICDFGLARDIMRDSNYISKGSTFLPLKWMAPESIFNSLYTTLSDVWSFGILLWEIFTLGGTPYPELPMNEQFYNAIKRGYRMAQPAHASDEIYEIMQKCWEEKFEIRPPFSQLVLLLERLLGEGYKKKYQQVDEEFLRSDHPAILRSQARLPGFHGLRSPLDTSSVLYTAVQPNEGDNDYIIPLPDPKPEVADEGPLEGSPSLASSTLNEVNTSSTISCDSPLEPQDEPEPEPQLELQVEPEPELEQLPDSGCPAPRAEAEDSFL
Protocol: as §4, §5

[11] = target: ABL1 (Homo sapiens (Human), UniProt P00519); assay: Caliper Mobility Shift kinase inhibition test; type: biochemical; details: 100 nM; read-out: inhibitory rate on ABL1
Protocol: (§6) The method adopted in the test was Caliper Mobility Shift Assay, which was a detection platform based on the mobility detection technology of microfluidic chip technology. […] Collected data was tested on Caliper to yield that inhibition ratio to kinase activity=(max−conversion)/(max−min)×100. “max” was DMSO control without adding compound, and “min” was low control. When IC50 was determined, each sample was provided with 10 dilutions, each with 2 multiple holes, and repeated for 3 times.

[12] = target: PDGFRα (Homo sapiens (Human), UniProt P16234); assay: Caliper Mobility Shift kinase inhibition test; type: biochemical; details: for inhibition at 0.1 µM: 100 nM
PDGFRα, sequence (P16234 24-1089): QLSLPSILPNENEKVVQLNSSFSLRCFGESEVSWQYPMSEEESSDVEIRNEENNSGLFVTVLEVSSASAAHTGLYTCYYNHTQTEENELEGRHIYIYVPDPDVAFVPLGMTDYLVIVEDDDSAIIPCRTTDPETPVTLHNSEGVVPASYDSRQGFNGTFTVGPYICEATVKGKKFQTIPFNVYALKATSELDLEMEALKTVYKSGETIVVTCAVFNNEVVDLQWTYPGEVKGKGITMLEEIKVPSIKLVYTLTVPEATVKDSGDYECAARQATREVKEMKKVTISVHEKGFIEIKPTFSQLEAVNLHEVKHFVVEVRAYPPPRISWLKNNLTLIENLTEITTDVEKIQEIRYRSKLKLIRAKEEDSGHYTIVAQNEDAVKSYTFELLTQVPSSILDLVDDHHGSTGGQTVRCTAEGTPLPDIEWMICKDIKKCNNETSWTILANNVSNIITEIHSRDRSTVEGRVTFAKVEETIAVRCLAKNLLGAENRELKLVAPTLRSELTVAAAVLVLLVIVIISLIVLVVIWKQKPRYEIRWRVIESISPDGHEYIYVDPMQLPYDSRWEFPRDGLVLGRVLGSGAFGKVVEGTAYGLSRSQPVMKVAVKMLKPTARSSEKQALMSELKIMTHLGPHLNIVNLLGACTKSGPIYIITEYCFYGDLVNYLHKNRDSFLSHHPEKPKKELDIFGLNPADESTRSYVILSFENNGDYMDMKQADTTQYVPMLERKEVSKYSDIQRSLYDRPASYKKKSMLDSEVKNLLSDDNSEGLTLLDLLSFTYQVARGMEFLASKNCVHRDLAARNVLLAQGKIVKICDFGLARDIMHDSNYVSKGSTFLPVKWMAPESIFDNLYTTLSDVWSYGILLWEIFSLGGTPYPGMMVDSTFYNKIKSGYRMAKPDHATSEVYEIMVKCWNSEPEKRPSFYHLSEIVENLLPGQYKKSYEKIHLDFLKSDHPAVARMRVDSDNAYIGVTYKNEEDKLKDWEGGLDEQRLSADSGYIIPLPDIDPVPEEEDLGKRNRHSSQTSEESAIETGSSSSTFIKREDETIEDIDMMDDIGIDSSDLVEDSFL
Protocol: as §6

[13] = tested on: human normal retinal cells ARPE-19; assay: MTT assay on human retinal cells; type: cell-based

IC50 [5]: 0.438 ± 0.001 µM
IC50 [6]: 0.37 ± 0.002 µM
IC50 [7]: 1.03 ± 0.08 µM
IC50 [8]: 0.0077 µM
inhibition at 0.1 µM ([8]; average, read-out: Average % inhibition JAK1): 90.5%
inhibition at 0.1 µM ([8]; replicate 1, read-out: % inhibition 1 JAK1): 91.7%
inhibition at 0.1 µM ([8]; replicate 2, read-out: % inhibition 2 JAK1): 89.3%
IC50 [9]: 0.027 µM
inhibition at 0.1 µM ([9]; average, read-out: Average % inhibition FGFR2): 83%
inhibition at 0.1 µM ([9]; replicate 1, read-out: % inhibition 1 FGFR2): 83.8%
inhibition at 0.1 µM ([9]; replicate 2, read-out: % inhibition 2 FGFR2): 82.1%
inhibitory activity on PDGFRβ (in words) [10]: significant inhibitory activities
inhibition at 0.1 µM ([10]; average, read-out: Average % inhibition PDGFR β): > 100%
inhibition at 0.1 µM ([10]; replicate 1, read-out: % inhibition 1 PDGFR β): 101%
inhibition at 0.1 µM ([10]; replicate 2, read-out: % inhibition 2 PDGFR β): 103%
inhibition at 0.1 µM ([10]; read-out: inhibitory rate on PDGFR-β): 99.8%
IC50 ([10]; read-out: IC50 PDGFR-β): 0.0017 µM
inhibition at 0.1 µM [11]: 95.3%
inhibitory activity on PDGFRα (in words) [12]: significant inhibitory activities
inhibition at 0.1 µM ([12]; average, read-out: Average % inhibition PDGFR α): > 100%
inhibition at 0.1 µM ([12]; replicate 1, read-out: % inhibition 1 PDGFR α): 98.9%
inhibition at 0.1 µM ([12]; replicate 2, read-out: % inhibition 2 PDGFR α): 103%
inhibition at 0.1 µM ([12]; read-out: inhibitory rate on PDGFR-α): 97.5%
IC50 ([12]; read-out: IC50 PDGFR-α): 0.0027 µM
inhibitory activity on ARPE-19 (in words) ([13]; at low concentration): almost no inhibitory activity
Structure (SMILES): CCN1CCN(c2ccc(Nc3ncc(C)c(Nc4ccc5cn[nH]c5c4)n3)cc2OC)CC1 [Compound 6i, N^2-(4-(4-ethylpiperazine-1-yl)-3-methoxyphenyl)-N^4-(1H-indazol-6-yl)-5-methylpyrimidine-2,4-diamine]
inhibitory activity on metastasis [1]: strong dose-dependent inhibitory activity
inhibitory activity on metastasis [2]: strong dose-dependent inhibitory activity
inhibitory activity on adhesion [3]: strong dose-dependent inhibitory activity
inhibitory activity on adhesion [4]: strong dose-dependent inhibitory activity
IC50 ([13]; Homo sapiens, ARPE-19, MTT, read-out: Inhibitory activity (IC50) ARPE-19): 17.5 ± 0.37 µM
